Data published in patent US20220002411A1, “METHODS FOR TREATING IMMUNE RELATED OCULAR DISORDERS” (LEGEND MEDICAL-RIMONCI VISION TECHNOLOGY INCUBATION LIMITED, priority 2019, published 2022).

Test system: glaucoma mice (high intraocular pressure, C57BL/6J)
Assay: Glaucoma mouse model induced by intraocular injection of polystyrene microparticles (RGC and axon damage)
Assay type: in vivo, C57BL/6J mice
Conditions: 2 μl once a week at 0.2 μg/ml intravitreal; observed after 8 weeks; compared to IgG injected mice / controls
Method: Glaucoma mouse model. Two glaucoma mice models were used in the following experiments. In the first model, high intraocular pressure was induced in adult C57BL/6J mice by injecting polystyrene microparticles. First, mice were anesthetized by intraperitoneal injection of a mixture of ketamine (120 mg/kg) and xylazine (12 mg/kg). Then, a small puncture in the center of the right cornea of the mouse was incised with a 30 G needle (BD, USA). Then, 3 to […] of polystyrene particles of 15 μm diameter (Invitrogen, Oregon, USA) were injected at a 5×10^6/ml concentration into the right anterior chamber of the eye by a glass micro-injector. Left eyes were used as controls, by injecting […] of PBS into the left anterior chamber in a similar manner
Treatment with immune checkpoint inhibitors. […]
Pathologic assessments. After mice were sacrificed, optic nerve and retinal patches were taken to assess optic nerve damage. The optic nerve was fixed overnight with Karnovsky solution. Transverse sections of the optic nerve were obtained 2 mm after the eyeball and observed by electron microscopy (EM410, Philips). For retinal patches the eyeball was fixed with 4% paraformaldehyde overnight. Retinal patches and frozen sections were taken. Retinal ganglion cells (RGCs) were labeled with beta 3 tubulin (Invitrogen) and recorded using a confocal laser microscope (Olympus FV1000). […]

Nc1ncnc2c1ncn2[C@@H]1O[C@H](CO)[C@@H](O)[C@H]1O [adenosine]
RGCs loss (beta 3 tubulin staining): decreased RGCs loss
